Measurements: patent US10071974B2, “Morpholine and 1,4-oxazepane amides as somatostatin receptor subtype 4 (SSTR4) agonists” (Boehringer Ingelheim International GmbH, priority 2014, dated 2018)
pEC50: −log10 of the molar value.

Target: human Somatostatin 4 Receptor (SSTR4) (Homo sapiens (Human), UniProt P31391)
Assay: cAMP assay with human somatostatin 4 receptor (hSSTR4 expressing H4 cells)
Format: cell-based
Settings: read-out: SSTR4 agonism EC50

human Somatostatin 4 Receptor (SSTR4), sequence (P31391 whole entry): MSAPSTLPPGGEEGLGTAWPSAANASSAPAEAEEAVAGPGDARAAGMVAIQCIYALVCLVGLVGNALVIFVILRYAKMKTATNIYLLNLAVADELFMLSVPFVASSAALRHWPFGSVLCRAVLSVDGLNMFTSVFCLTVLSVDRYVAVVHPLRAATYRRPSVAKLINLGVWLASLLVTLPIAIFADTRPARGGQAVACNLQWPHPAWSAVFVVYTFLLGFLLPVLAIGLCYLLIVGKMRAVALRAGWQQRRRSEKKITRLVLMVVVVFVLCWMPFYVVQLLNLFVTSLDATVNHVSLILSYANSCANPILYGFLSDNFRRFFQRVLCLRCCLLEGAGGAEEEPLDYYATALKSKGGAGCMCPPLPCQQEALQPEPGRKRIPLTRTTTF

Structure (SMILES) | pEC50
Cc1cccc2c(C(C)(C)NC(=O)C3CNCCOC3)cnn12 (racemic) [Example 33] | 8.11
Cc1cc2ccccc2c(C(C)(C)NC(=O)C2CNCCCO2)n1 (racemic) [Example 47] | 7.59
Cc1cc2ccccc2c(C(C)(C)NC(=O)C2CCNCCO2)n1 (racemic) [Example 50] | 6.98
Cc1cccc2c(C(C)(C)NC(=O)C3CNCCOC3)noc12 (racemic) [Example 54] | 8.09
Cc1cccc2c(C(C)(C)NC(=O)C3CNCCOC3)n[nH]c12 (racemic) [Example 58] | 8.39
CC(C)(NC(=O)C1CNCCOC1)c1n[nH]c2c(F)cccc12 (racemic) [Example 88] | 7.95
CC(C)(NC(=O)C1CNCCOC1)c1n[nH]c2c(Cl)cccc12 (racemic) [Example 92] | 8.60
Cc1cccn2c(C(C)(C)NC(=O)C3CCNCCO3)ncc12 (racemic) [Example 141] | 7.04
Cc1cccn2c(C(C)(C)NC(=O)C3CNCCCO3)ncc12 (racemic) [Example 144] | 7.14
CC(C)(COc1nccc2ccccc12)NC(=O)C1CNCCOC1 (single isomer, unassigned) [Example 18] | 6.68
Cn1nc(C(C)(C)NC(=O)C2CNCCOC2)c2ccccc21 (single isomer, unassigned) [Example 22] | 6.72
Cn1nc(C(C)(C)NC(=O)C2CNCCCO2)c2ccccc21 (single isomer, unassigned) [Example 25] | 6.00
Cc1cccc2c(C(C)(C)NC(=O)C3CNCCOC3)cnn12 (single isomer, unassigned) [Example 35] | 5.54
Cc1cc2ccccc2c(C(C)(C)NC(=O)C2CCNCCO2)n1 (single isomer, unassigned) [Example 51] | 7.37
Cc1cccc2c(C(C)(C)NC(=O)C3CNCCOC3)noc12 (single isomer, unassigned) [Example 56] | 6.13
Cc1cccc2c(C(C)(C)NC(=O)C3CNCCOC3)n[nH]c12 (single isomer, unassigned) [Example 59] | 5.97
CC(C)(NC(=O)C1CNCCOC1)c1noc2c(F)cccc12 (single isomer, unassigned) [Example 63] | 7.38
CC(C)(NC(=O)C1CNCCCO1)c1noc2c(F)cccc12 (single isomer, unassigned) [Example 66] | 6.20
CC(C)(NC(=O)C1CNCCCO1)c1noc2c(F)cccc12 (single isomer, unassigned) [Example 67] | 4.64
CC(C)(NC(=O)C1CCNCCO1)c1noc2c(F)cccc12 (single isomer, unassigned) [Example 70] | 6.26
Cn1nc(C(C)(C)NC(=O)C2CNCCOC2)c2cccc(F)c21 (single isomer, unassigned) [Example 78] | 6.37

Structure (SMILES) | pEC50
Cc1cccc2c(C(C)(C)NC(=O)C3CNCCOC3)nn(C)c12 (single isomer, unassigned) [Example 86] | 6.00
CC(C)(NC(=O)C1CNCCOC1)c1n[nH]c2c(Cl)cccc12 (single isomer, unassigned) [Example 94] | 7.51
Cc1cccn2c(C(C)(NC(=O)[C@@H]3CNCCO3)C3CC3)ncc12 (single isomer, unassigned) [Example 110] | 6.00
Cc1cccn2c(C(C)(NC(=O)[C@@H]3CNCCO3)C3CC3)ncc12 (single isomer, unassigned) [Example 111] | 6.54
Cc1cccn2c(C(C)(CC(C)C)NC(=O)[C@@H]3CNCCO3)ncc12 (single isomer, unassigned) [Example 112] | 5.26
Cc1cccn2c(C3(NC(=O)[C@@H]4CNCCO4)CCOC3)ncc12 (single isomer, unassigned) [Example 115] | 6.53
COc1cccn2c(C(C)(C)NC(=O)C3CNCCOC3)ncc12 (single isomer, unassigned) [Example 125] | 7.79
Cc1cccn2c(C(C)(C)NC(=O)C3CNCCOC3)nc(C)c12 (single isomer, unassigned) [Example 129] | 8.28
Cc1cccn2c(C3(NC(=O)C4CNCCOC4)CCC3)ncc12 (single isomer, unassigned) [Example 131] | 7.72
Cc1nc(C(C)(C)NC(=O)C2CNCCOC2)c2cccc(C)c2n1 (single isomer, unassigned) [Example 134] | 7.01
Cc1cccn2c(C(C)(C)NC(=O)C3CNCCOC3)nc(C3CC3)c12 (single isomer, unassigned) [Example 139] | 7.65
Cc1cccn2c(C(C)(C)NC(=O)C3CNCCOC3)nc(C3CC3)c12 (single isomer, unassigned) [Example 140] | 6.00
Cc1cccn2c(C(C)(C)NC(=O)C3CCNCCO3)ncc12 (single isomer, unassigned) [Example 142] | 7.04
Cc1cccn2c(C(C)(C)NC(=O)C3CCNCCO3)ncc12 (single isomer, unassigned) [Example 143] | 7.11
Cc1cccn2c(C(C)(C)NC(=O)C3CNCCCO3)ncc12 (single isomer, unassigned) [Example 146] | 6.00
Cc1cccn2c(C(C)(C)NC(=O)C3CNCCCO3)nc(C)c12 (single isomer, unassigned) [Example 148] | 7.03
CC(C)(NC(=O)C1CNCCOC1)c1cccc2ccccc12 (stereo not drawn) [Example 1] | 8.33
C[C@H](NC(=O)C1CNCCOC1)c1cccc2ccccc12 (stereo partly drawn) [Example 3] | 7.74
CC(C)(COc1cnccc1C(F)(F)F)NC(=O)C1CNCCOC1 (stereo not drawn) [Example 4] | 6.57
CC(C)(NC(=O)[C@@H]1CNCCO1)C1CCCCC1 [Example 7] | 5.62

More lines, now with the values ahead:

pEC50 | Structure (SMILES)
6.41 | CC(C)(COc1nccc2ccccc12)NC(=O)C1CNCCOC1 (racemic) [Example 16]
9.10 | Cc1ncc(C(C)(C)NC(=O)C2CNCCOC2)c2ccccc12 (racemic) [Example 40]
7.18 | CC(C)(NC(=O)C1CNCCOC1)c1noc2c(F)cccc12 (racemic) [Example 62]
6.00 | CC(C)(NC(=O)C1CNCCCO1)c1noc2c(F)cccc12 (racemic) [Example 65]
6.20 | CC(C)(NC(=O)C1CCNCCO1)c1noc2c(F)cccc12 (racemic) [Example 68]
8.32 | Cn1nc(C(C)(C)NC(=O)C2CNCCOC2)c2cccc(Cl)c21 (racemic) [Example 80]
8.35 | Cc1cccc2c(C(C)(C)NC(=O)C3CNCCOC3)nn(C)c12 (racemic) [Example 84]
7.49 | COc1cccn2c(C(C)(C)NC(=O)C3CNCCOC3)ncc12 (racemic) [Example 123]
7.26 | Cc1nc(C(C)(C)NC(=O)C2CNCCOC2)c2cccc(C)c2n1 (racemic) [Example 133]
8.07 | Cc1cccn2c(C(C)(C)NC(=O)C3CNCCOC3)ccc12 (racemic) [Example 135]
7.22 | Cc1cccn2c(C(C)(C)NC(=O)C3CNCCOC3)nc(C3CC3)c12 (racemic) [Example 138]
6.73 | Cc1cccn2c(C(C)(C)NC(=O)C3CNCCCO3)nc(C)c12 (racemic) [Example 147]
4.52 | CC(C)(COc1nccc2ccccc12)NC(=O)C1CNCCOC1 (single isomer, unassigned) [Example 17]
7.32 | Cn1nc(C(C)(C)NC(=O)C2CCNCCO2)c2ccccc21 (single isomer, unassigned) [Example 28]
6.38 | Cc1ncc(C(C)(C)NC(=O)C2CNCCOC2)c2ccccc12 (single isomer, unassigned) [Example 42]
6.10 | Cc1cc2ccccc2c(C(C)(C)NC(=O)C2CNCCOC2)n1 (single isomer, unassigned) [Example 45]
6.01 | Cc1cc2ccccc2c(C(C)(C)NC(=O)C2CNCCCO2)n1 (single isomer, unassigned) [Example 49]

pEC50 | Structure (SMILES)
7.31 | Cc1cc2ccccc2c(C(C)(C)NC(=O)C2CCNCCO2)n1 (single isomer, unassigned) [Example 52]
5.73 | CC(C)(NC(=O)C1CNCCOC1)c1noc2c(F)cccc12 (single isomer, unassigned) [Example 64]
6.36 | CC(C)(NC(=O)C1CCNCCO1)c1noc2c(F)cccc12 (single isomer, unassigned) [Example 69]
6.82 | Cn1nc(C(C)(C)NC(=O)C2CNCCOC2)c2cccc(Cl)c21 (single isomer, unassigned) [Example 81]
6.17 | CC(C)(NC(=O)C1CNCCOC1)c1n[nH]c2c(F)cccc12 (single isomer, unassigned) [Example 90]
6.42 | Cc1cccn2c(C(C)(CC(C)C)NC(=O)[C@@H]3CNCCO3)ncc12 (single isomer, unassigned) [Example 113]
6.00 | Cc1cccn2c(C3(NC(=O)[C@@H]4CNCCO4)CCOC3)ncc12 (single isomer, unassigned) [Example 114]
7.06 | Cc1cccn2c(C(C)(C)NC(=O)C3CNCCOC3)ncc12 (single isomer, unassigned) [Example 118]
7.13 | CC(C)(NC(=O)C1CNCCOC1)c1ncc2c(Cl)cccn12 (single isomer, unassigned) [Example 119]
7.95 | Cc1nc(C(C)(C)NC(=O)C2CNCCOC2)n2cccc(F)c12 (single isomer, unassigned) [Example 121]
6.00 | Cc1nc(C(C)(C)NC(=O)C2CNCCOC2)n2cccc(F)c12 (single isomer, unassigned) [Example 122]
6.00 | COc1cccn2c(C(C)(C)NC(=O)C3CNCCOC3)ncc12 (single isomer, unassigned) [Example 124]
6.33 | Cc1cccn2c(C(C)(C)NC(=O)C3CNCCOC3)nc(C)c12 (single isomer, unassigned) [Example 130]
5.00 | Cc1cccn2c(C3(NC(=O)C4CNCCOC4)CCC3)ncc12 (single isomer, unassigned) [Example 132]
5.84 | Cc1cccn2c(C(C)(C)NC(=O)C3CNCCOC3)ccc12 (single isomer, unassigned) [Example 137]
6.00 | Cc1cccn2c(C(C)(C)NC(=O)C3CNCCCO3)nc(C)c12 (single isomer, unassigned) [Example 149]
7.05 | Cc1cc2cccnc2c(C(C)(C)NC(=O)C2CNCCOC2)n1 (stereo not drawn) [Example 2]
